Reference: patent US6878522B2, “Methods for the identification of compounds useful for the treatment of disease states mediated by prostaglandin D2” (priority 2000, dated 2005)

Columns and labels:
guinea pig eyes = details: topical, cited from earlier work; for microvascular leakage followed by conjunctival inflammation: 6-hour post challenge
[1] = biological target: T1, human eosinophil [3H]-PGD2 binding site (Homo sapiens, UniProt Q9Y5Y4); test: [3H]PGD2 binding in isolated human eosinophils; details: number in brackets not defined
T1 construct: endogenous in cells; host or cells: isolated human eosinophils
T1 sequence (Q9Y5Y4 1-395): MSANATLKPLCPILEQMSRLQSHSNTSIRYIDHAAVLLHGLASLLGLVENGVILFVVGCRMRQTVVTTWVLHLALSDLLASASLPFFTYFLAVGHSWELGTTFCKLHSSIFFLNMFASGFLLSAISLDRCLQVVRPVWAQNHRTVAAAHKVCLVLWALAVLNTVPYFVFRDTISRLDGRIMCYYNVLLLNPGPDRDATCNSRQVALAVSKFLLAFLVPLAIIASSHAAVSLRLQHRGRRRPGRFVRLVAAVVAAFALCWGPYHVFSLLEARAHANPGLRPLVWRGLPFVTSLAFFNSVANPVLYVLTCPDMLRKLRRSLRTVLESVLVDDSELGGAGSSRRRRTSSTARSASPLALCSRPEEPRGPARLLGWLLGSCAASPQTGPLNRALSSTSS
Source text: As is shown in FIG. 1B, the effects of the prostaglandins and analogs on human eosinophil [^3H]-PGD2 binding site and eosinophil functional responses have the same order of potency (i.e., PGD2>PGF2a>>BW245C).

[2] = test system: isolated human eosinophils; test: Chemotaxis of isolated human eosinophils; type: cell-based
Description: In a specific example of this method, a competitive assay is performed to test compounds for their ability to interrupt the attraction of CRTH2 cells to PGD2. In this method, test compounds are diluted into the bottom wells of the Boyden chemotaxis chamber. A constant amount of PGD2 is also added to this dilution series, at a concentration known to have a chemotactic effect on CRTH2 cells. As a control, at least one aliquot contains only PGD2. Cells expressing CRTH2 are resuspended at 3-3.5×10^6 cells/ml in RPMI 1640 supplemented with 10 mM HEPES and 1 mg/ml bovine serum albumin (Sigma, St. Louis, Mo.), and placed into the upper wells of the chamber. The chambers are incubated for 90-120 minutes at 37° C. in a humidified CO2 incubator. After the incubation period, the number of migrating cells on the lower surface of the membrane filter is counted using light microscopy. The contribution of the test compound to the chemotactic activity of PGD2 is measured by comparing the chemotactic activity of the aliquots containing only PGD2 with the activity of aliquots containing test compound and PGD2. If addition of the test compound to the PGD2 solution results in a […] in the number of cells detected on the lower surface of the membrane relative to the number of cells detected using a solution containing only PGD2, then there is identified an antagonist of PGD2 induction of chemotactic activity of cells expressing CRTH2. In contrast, if the addition of the test compound to the PGD2 solution results in a […] in the number of cells detected on the lower surface of the membrane (relative to the number of cells detected using a solution containing only PGD2), then an […] of PGD2 induction of chemotactic activity of cells expressing CRTH2 is identified.
The chemotactic response of human T lymphocytes to PGD2, murine MDC and murine mSDF was also assayed. Chemotaxis was determined using a 48-well Boyden chamber (Neuroprobe, Cabin John, Md.), and 3.0 μm polycarbonate filters. Cells were resuspended (3-3.5×10^6 cells/ml) in RPMI 1640 supplemented with 10 mM HEPES and 1 mg/ml bovine serum albumin (Sigma, St. Louis, Mo.), and placed into the upper wells of the chamber. The compound to be tested was placed in the lower wells. The chambers were incubated for 90-120 minutes at 37° C. in a humidified CO2 incubator. At the end of the incubation period, the number of migrating cells on the filter (expressed per high power field) were enumerated microscopically. […] In FIG. 4, the chemotactic response of human basophils to PGD2 and C5a is shown.

Structure (SMILES)	microvascular leakage followed by conjunctival inflammation (guinea pig eyes)	ocular hypotension (guinea pig eyes)	IC50 [1] [µM]	EC50 [2] [µM]
O=C(O)CCCCCCC1C(=O)NC(=O)N1CCC(O)C1CCCCC1 (stereo not drawn) [BW-245C]	BW-245C-insensitive	mimicked by BW-245C	> 100	> 1
CCCCC[C@H](O)/C=C/[C@H]1C(=O)C[C@H](O)[C@@H]1C/C=C\CCCC(=O)O [PGD2, prostaglandin D2]	microvascular leakage followed by conjunctival inflammation	elicits ocular hypotension	0.025	0.003
CCCCC[C@H](O)/C=C/[C@H]1[C@H](O)CC(=O)[C@@H]1C/C=C\CCCC(=O)O [PGE2]			3.3	> 0.1
CCCCC[C@H](O)/C=C/[C@@H]1[C@@H](C/C=C\CCCC(=O)O)[C@@H](O)C[C@H]1O [PGF2α]			1.5	> 0.1
